Test results reported in patent publication US20210169953A1, “COMPOSITION FOR TYPE IV ALLERGY” (SONE FARM CO., LTD, priority 2018, published 2021).
Where “and” joins values, the source holds several entries; their conditions need not be identical. Identical values can stand only once.

System: picryl chloride-induced mouse contact dermatitis model
Assay: Suppression action on mouse contact dermatitis model by application on the auricle (auricle thickness)
Type: in vivo, mouse (male BALB/cA Jcl)
Protocol: From the supernatant of a culture broth obtained by cultivating the strain IJH-SONE68 in modified-SDM medium, exopolysaccharides produced by the strain were purified by the method disclosed in Example 2 to be supplied to experiments (1 mg/mL). The same concentration was used for a dipotassium glycyrrhizinate aqueous solution used as a control of an existing anti-inflammatory drug.
The mice used were male BALB/cA Jcl mice (7-week old at the time of arrival, CLEA Japan, Inc.). Five mice were housed in a breeding cage and bred in an animal breeding room in which environment was adjusted to temperature of 20 to 26° C., humidity of 40 to 60%, and lighting time of 12 hours (8:00 to 20:00). The mice were allowed to freely ingest solid feed MF (Oriental Yeast Co., Ltd.). In addition, with regard to a drinking water, the mice were allowed to freely ingest a purified water.
After carried in the cage, the mice were acclimated for 7 days. […]
On Day 6, the thickness of right auricle of the mice was measured in advance with a caliper, and then an allergic reaction was induced by applying 20 μL of a 1 w/v % picryl chloride solution on the front and back of the right auricle. […] Eighteen hours later (Day 7), the thickness of the auricle was measured, and the difference before and after the induction (A auricle thickness [mm]) was compared among the groups. […] Tukey's test or t test by Welch's method was used for a significant difference test among the groups, and it was determined that there was a significant difference when a risk factor (p value) was less than 0.05.

CC1(C)[C@@H](O[C@H]2O[C@H](C(=O)[O-])[C@@H](O)[C@H](O)[C@H]2O[C@@H]2O[C@H](C(=O)[O-])[C@@H](O)[C@H](O)[C@H]2O)CC[C@]2(C)[C@H]3C(=O)C=C4[C@@H]5C[C@@](C)(C(=O)O)CC[C@]5(C)CC[C@@]4(C)[C@]3(C)CC[C@@H]12.[K+].[K+] [dipotassium glycyrrhizinate]
Increase in auricle thickness due to inflammation vs control group (FIG. 7, Tukey test) (application, p<0.1): tended to be suppressed | Increased amount of auricle thickness, Average (group average, 20 μL of 1 mg/mL sample applied on right auricle 2 h after induction, measured 18 h later, control 0.28): 0.184 mm | Increased amount of auricle thickness, each mouse (individual mice, 20 μL of 1 mg/mL sample applied on right auricle 2 h after induction, measured 18 h later): 0.20 mm and 0.06 mm and 0.22 mm (3×)
